Source: patent US9185889B2, “CD4 T-cells and CD8zeta cells involved in mammalian host response to epithelial cell infections and uses thereof” (Indiana University Research and Technology Corporation, priority 2010, dated 2015)

Key:
[1] = tested on: C. muridarum; assay: Control of C. muridarum replication in C57epi.1 epithelial cells (IFU titered on McCoy monolayers); type: cell-based, Chlamydia muridarum
Method: To test whether the CD4 clones could control the Chlamydia replication in vitro, C57epi.1 monolayers in 48 well plates were untreated, or treated with IFN-γ (10 ηg/ml) for 14 h prior to infection or at the time of infection with 3 IFU of C. muridarum per cell. After addition of C. muridarum the plates were spun at 1200 rpm (300 g) for 30 minutes. Four hours after infection the inoculum was removed CD4 T cell clones were added in T cell media. 36 h post-infection, wells were scraped, harvested, and stored at −80° C. until C. muridarum titers determined on McCoy monolayers as previously described (Johnson, R. M., 2004). Recombinant murine IFN-γ at all concentrations tested (up to 1000 ρg/ml) had no effect on C. muridarum titrations done on the McCoy monolayers; maximum IFN-γ carryover in dilutions used for quantifying C. muridarum was <50 ρg/ml.
The panel of CD4 T cell clones was tested to determine the ability of specific clones to control C. muridarum replication in C57epi.1 epithelial cells (FIG. 2). Monolayers of C57epi.1 cells in 48 well plates (˜200,000 epithelial cells per well) were untreated or treated with IFN-γ, either 14 h prior to infection or at the time of infection, then infected with C. muridarum. Four hours post-infection the inoculating media was removed and replaced with T cell media containing CD4 T cell clones; 150, 000 T cells were added per well for an effector-to-target ratio of ˜0.75:1. 32 h later the wells were harvested with additional SPG buffer and recovered C. muridarum titered on McCoy monolayers to score replication. […] IFUs recovered from experimental wells were compared with identically treated (untreated or IFN-γ treated) parallel control wells (no T cells) to calculate % control replication. This normalization controls for the difference in C. muridarum replication in the untreated vs. IFN-γ treated C57epi.1 cells.
Referring now to FIG. 12A, the modest inhibitory effect of IFN-γ was reversed by blocking NO production with either MLA or NIL. […] According to FIG. 12B, C57.1epi cells were untreated (hatched bar) or pretreated with IFN-γ (10 ηg/ml×14 hours) in absence (black bar) or presence of MLA (gray bar) or NIL (light gray bar), and then infected with C. muridarum (3 IFU/cell). Wells were harvested at 36 hours postinfection and C. muridarum (IFU) quantified on McCoy monolayers. Comparisons were made to the infected (hatched bar).
Referring now to FIG. 19B, C. muridarum replication in epithelial cells, by an iNOS-independent mechanism, is controlled by IFN-γ-independent CD4 T cell clones. […] Wells were harvested 36 hours post infection and C. muridarum quantified on McCoy monolayers. […]

[2] = biological target: T1, iNOS (Mus musculus, UniProt P29477); assay: NO production measured as nitrite by infected C57epi.1 epithelial cells with iNOS inhibitors; type: cell-based, murine
T1 construct: C57epi.1 is a cloned oviduct epithelial cell line derived from a C57BL/6 mouse; endogenous in cells; host or cells: C57epi.1 mouse (C57BL/6) oviduct epithelial cell line, IFN-gamma pretreated and infected with C. muridarum, with or without mouse CD4 T cell clones
Method: Referring now to FIG. 19A, C57 epi.1 epithelial cells, untreated (hatched bars) or pretreated with IFN-γ (10 ηg/ml×14 hours) in the absence (black bars) or presence of iNOS inhibitors MLA (gray bars) or NIL (light gray bars),—were infected with C. muridarum (3 IFU/cell). Four hours later, the inocula were removed and monolayers cocilted with and with CD4 T-cell clones uvmo-1, -2, and -3 for an additional 32 hours. Supernatants were collected at 36 hour post infection, 32 hour post T cell coculture, and analyzed for NO production measured as nitrite. […] Also, MLA and NIL were effective inhibitors of NO production, as MLA blocked>90% of IFN-γ-induced NO; NIL blocked ˜60%.
Still referring to FIG. 19A, the iNOS inhibitor MLA blocks infected epithelial nitrite production to the background level of 2 uM even in the presence of exogenous interferon gamma and CD4 T cell clones uvmo-1,-2,-3. Inhibition of iNOS activity induced by interferon gamma, and interferon gamma plus CD4 T cell clones uvmo-1,-2,-3, in infected C57epi.1 murine epithelial cells using the iNOS inhibitors N^G-Monomethyl-L-arginine (MLA) and L-N^6-(1-Iminoethyl)lysine (NIL). iNOS activity was measured as nitrite in 24 h culture supernatants. […] 24 h supernatants from uninfected C57epi.1 murine epithelial cells have nitrite levels>0<1.5 uM.

| Compound | effect on the modest inhibitory effect of IFN-γ on C. muridarum replication ([1]; C57epi.1 pretreated with IFN-γ, no T cells) | block of IFN-γ-induced NO ([2]; infected C57epi.1 cells, nitrite in supernatants) [%] | C. muridarum replication in control wells (no T cells) ([1]; C57epi.1 pretreated with IFN-γ 14 h prior to infection, pooled means from two experiments) | C. muridarum replication in control wells (no T cells) ([1]; IFN-γ added at the time of infection) | effect on C. muridarum titrations done on McCoy monolayers ([1]; all concentrations tested (up to 1000 ρg/ml)) | induction of NO production in C57epi.1 epithelial cells ([2]; IFN-γ 10 ηg/ml × 14 hours, infected, p<0.0001) |
| --- | --- | --- | --- | --- | --- | --- |
| CC(=N)NCCCC[C@H](N)C(=O)O.Cl [NIL, L-N^6-(1-iminoethyl)lysine hydrocholoride] | reversed | ~60 | – | – | – | – |
| IFN-γ: Recombinant murine IFN-γ (R&D Systems) | – | – | 4±2×10^6 IFU/well | 5±1×10^6 IFU/well | no effect | roughly 6 fold |
